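Tested at 5 concentrations; 48 h exposure; 96-well plates; endpoints linearly interpolated, else capped at highest concentration. GI50: concentration for 50% inhibition of growth.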 Activity calls are given as the source filed them. Rule as the data show it: active = GI50 up to about 1.1 µM and inactive = higher. Residues, ends and D or L forms follow the SMILES beside them. *: point of attachment. Ethyl(2-NMe3+) = C[N+](C)(C)CC*; Boc = CC(C)(C)OC(=O)*
Experiments:
Experiment in all cases: DTP human tumour cell line panel, 48 h
NCI-H23 = system: NCI-H23
MCF7 = system: MCF7
U-251 = system: U-251
NCI-H522 = system: NCI-H522
SW-620 = system: SW-620
HCT-15 = system: HCT-15
786-0 = system: 786-0
SK-MEL-5 = system: SK-MEL-5
BT-549 = system: BT-549
MOLT-4 = system: MOLT-4
HOP-62 = system: HOP-62
HL-60 = system: HL-60
UO-31 = system: UO-31
A549 = system: A549
UACC-62 = system: UACC-62
CCRF-CEM = system: CCRF-CEM
UACC-257 = system: UACC-257
NCI/ADR-RES = system: NCI/ADR-RES
NCI-H460 = system: NCI-H460
EKVX = system: EKVX
M14 = system: M14
OVCAR-8 = system: OVCAR-8
HOP-92 = system: HOP-92
PC-3 = system: PC-3
SNB-75 = system: SNB-75
KM12 = system: KM12
HCC 2998 = system: HCC 2998
SK-MEL-28 = system: SK-MEL-28
T47D = system: T47D
TK-10 = system: TK-10
OVCAR-5 = system: OVCAR-5
OVCAR-3 = system: OVCAR-3
COLO 205 = system: COLO 205
SNB-19 = system: SNB-19
SF-268 = system: SF-268
Hs-578T = system: Hs-578T
RXF 393 = system: RXF 393
A498 = system: A498
HCT-116 = system: HCT-116
K562 = system: K562
OVCAR-4 = system: OVCAR-4
SN12C = system: SN12C
LOX IMVI = system: LOX IMVI
NCI-H226 = system: NCI-H226
DU-145 = system: DU-145
SF-295 = system: SF-295
RPMI-8226 = system: RPMI-8226
MDA-MB-231 = system: MDA-MB-231
SK-MEL-2 = system: SK-MEL-2
ACHN = system: ACHN
HT-29 = system: HT-29
SK-OV-3 = system: SK-OV-3
IGROV-1 = system: IGROV-1
Malme-3M = system: Malme-3M
MDA-N = system: MDA-N
CAKI-1 = system: CAKI-1
MDA-MB-435 = system: MDA-MB-435
SF-539 = system: SF-539

Measured: GI50

C[C@H](C1CC(C)(O)C(C)(O)C(O)O1)[C@H]1CC[C@H]2[C@@H]3[C@@H]4O[C@@H]4[C@@]4(O)CC=CC(=O)[C@]4(C)[C@H]3CC[C@]12C (stereo partly drawn)
> 50 µM: HCT-15
active: Hs-578T 0.039 µM
inactive: NCI-H23 > 50 µM | MCF7 > 50 µM | U-251 > 50 µM | NCI-H522 18.2 µM | SW-620 > 50 µM | 786-0 15.5 µM | SK-MEL-5 > 50 µM | BT-549 > 50 µM | MOLT-4 > 50 µM | HOP-62 27.8 µM | HL-60 > 50 µM | UO-31 7.55 µM | A549 > 50 µM | UACC-62 > 50 µM | CCRF-CEM > 50 µM | UACC-257 > 50 µM | NCI/ADR-RES > 50 µM | NCI-H460 > 50 µM | EKVX > 50 µM | M14 > 50 µM | OVCAR-8 30.4 µM | HOP-92 33.6 µM | PC-3 > 50 µM | SNB-75 20.9 µM | KM12 > 50 µM | HCC 2998 > 50 µM | SK-MEL-28 > 50 µM | T47D > 50 µM | TK-10 > 50 µM | OVCAR-5 > 50 µM | OVCAR-3 > 50 µM | COLO 205 > 50 µM | SNB-19 > 50 µM | SF-268 5.31 µM | RXF 393 22.1 µM | A498 22.4 µM | HCT-116 36.9 µM | K562 > 50 µM | OVCAR-4 > 50 µM | SN12C > 50 µM | LOX IMVI > 50 µM | NCI-H226 22.9 µM | DU-145 > 50 µM | SF-295 > 50 µM | RPMI-8226 > 50 µM | MDA-MB-231 44 µM | SK-MEL-2 > 50 µM | ACHN 45.4 µM | HT-29 > 50 µM | SK-OV-3 14.8 µM | IGROV-1 > 50 µM | Malme-3M 2.67 µM | MDA-N > 50 µM | CAKI-1 > 50 µM | MDA-MB-435 > 50 µM

CC(NC(=O)C(Cc1ccc(OCC[N+](C)(C)C)cc1)NC(=O)OC(C)(C)C)C(=O)NC(Cc1ccccc1)C(=O)NCC(N)=O (stereo not drawn) (Boc-Y(Ethyl(2-NMe3+))AFG-NH2; configuration not given here)
> 100 µM: HCT-15
inactive: NCI-H23 15.5 µM | MCF7 > 100 µM | U-251 3.24 µM | NCI-H522 36.9 µM | SW-620 > 100 µM | 786-0 10.4 µM | SK-MEL-5 > 100 µM | BT-549 20.2 µM | MOLT-4 > 100 µM | HOP-62 2.44 µM | HL-60 > 100 µM | UO-31 65.3 µM | A549 36.8 µM | UACC-62 25.9 µM | UACC-257 45.2 µM | NCI/ADR-RES 36.9 µM | NCI-H460 70.5 µM | M14 65.9 µM | OVCAR-8 12 µM | HOP-92 15.7 µM | PC-3 > 100 µM | SNB-75 13.6 µM | KM12 > 100 µM | HCC 2998 16.5 µM | SK-MEL-28 > 100 µM | T47D 43.8 µM | TK-10 11.8 µM | OVCAR-5 25.1 µM | OVCAR-3 18.2 µM | COLO 205 75.7 µM | SNB-19 13.2 µM | SF-268 10.1 µM | Hs-578T 22.4 µM | RXF 393 11.7 µM | A498 13.4 µM | HCT-116 34.9 µM | K562 > 100 µM | OVCAR-4 38.1 µM | SN12C 37.2 µM | LOX IMVI 30.4 µM | NCI-H226 22.7 µM | SF-539 11.4 µM | DU-145 36.1 µM | SF-295 3.8 µM | RPMI-8226 > 100 µM | MDA-MB-231 2.75 µM | SK-MEL-2 11.9 µM | ACHN 22.1 µM | HT-29 > 100 µM | SK-OV-3 10 µM | IGROV-1 20.1 µM | Malme-3M 20.9 µM | MDA-N > 100 µM | CAKI-1 87.1 µM | MDA-MB-435 > 100 µM

Source: ChEMBL document CHEMBL1201862, “PubChem BioAssay data set” (2004)
